# Results: article PMC10724237, “Identification of 5-HT2A receptor signaling pathways associated with psychedelic potential” (Nature Communications, 2023)
# Where two headings read alike, the source gives them in different places.
# How the values were obtained:
# [1] = target: T1, 5-HT2A receptor (5-HT2AR) (Homo sapiens, UniProt P28223); assay type: cell-based
# T1 construct: gene HTR2A; full-length receptor in HEK293T; co-expressed Galphaq-RLuc8/Gbeta1/Ggamma1-GFP2 for Gq dissociation; C-terminal RLuc8 fusion for beta-arrestin2 recruitment
# [2] = target: T1, 5-HT2A receptor (5-HT2AR); assay: competition radioligand binding (NIMH PDSP); conditions: competitive
# [3] = target: T1, 5-HT2A receptor (5-HT2AR); assay: Gq dissociation BRET2 in HEK293T; assay type: cell-based; conditions: 37 °C
# [4] = target: T2, 5-HT2C receptor (5-HT2CR) (Homo sapiens, UniProt P28335); assay: Gq dissociation BRET2 in HEK293T; assay type: cell-based; conditions: agonist; 37 °C, 60 min
# T2 construct: gene HTR2C; full-length receptor in HEK293T with Galphaq-RLuc8/Gbeta1/Ggamma1-GFP2
# [5] = target: T3, 5-HT2B receptor (5-HT2BR) (Homo sapiens, UniProt P41595); assay: Gq dissociation BRET2 in HEK293T; assay type: cell-based; conditions: partial agonist; 37 °C, 60 min
# T3 construct: gene HTR2B; full-length receptor in HEK293T with Galphaq-RLuc8/Gbeta1/Ggamma1-GFP2
# T3 sequence (P41595 whole entry): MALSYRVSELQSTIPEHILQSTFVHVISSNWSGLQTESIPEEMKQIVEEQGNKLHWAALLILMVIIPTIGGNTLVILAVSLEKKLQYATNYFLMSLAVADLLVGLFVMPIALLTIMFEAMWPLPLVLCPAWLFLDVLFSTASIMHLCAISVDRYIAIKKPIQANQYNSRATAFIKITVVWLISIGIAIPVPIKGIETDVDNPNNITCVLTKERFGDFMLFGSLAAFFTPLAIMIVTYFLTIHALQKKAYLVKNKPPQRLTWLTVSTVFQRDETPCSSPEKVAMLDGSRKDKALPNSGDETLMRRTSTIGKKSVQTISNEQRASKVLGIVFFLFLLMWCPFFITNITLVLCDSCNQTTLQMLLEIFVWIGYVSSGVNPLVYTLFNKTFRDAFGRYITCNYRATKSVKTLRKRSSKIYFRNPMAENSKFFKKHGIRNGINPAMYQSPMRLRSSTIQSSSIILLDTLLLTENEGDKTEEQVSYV
# T1 sequence (P28223 whole entry, the tested form may be a part): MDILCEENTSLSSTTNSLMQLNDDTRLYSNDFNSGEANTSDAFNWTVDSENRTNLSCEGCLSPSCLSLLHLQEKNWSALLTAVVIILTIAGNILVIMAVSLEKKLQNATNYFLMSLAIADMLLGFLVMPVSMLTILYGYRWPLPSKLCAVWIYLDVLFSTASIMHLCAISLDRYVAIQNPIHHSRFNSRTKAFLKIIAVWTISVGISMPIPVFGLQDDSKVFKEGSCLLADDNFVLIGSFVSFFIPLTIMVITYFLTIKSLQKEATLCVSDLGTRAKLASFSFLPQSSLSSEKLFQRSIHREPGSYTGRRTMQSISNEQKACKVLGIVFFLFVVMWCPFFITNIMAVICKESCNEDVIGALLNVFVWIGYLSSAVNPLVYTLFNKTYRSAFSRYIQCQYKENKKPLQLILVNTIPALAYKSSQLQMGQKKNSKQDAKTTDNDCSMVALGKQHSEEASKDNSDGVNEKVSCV
# T2 sequence (P28335 33-458): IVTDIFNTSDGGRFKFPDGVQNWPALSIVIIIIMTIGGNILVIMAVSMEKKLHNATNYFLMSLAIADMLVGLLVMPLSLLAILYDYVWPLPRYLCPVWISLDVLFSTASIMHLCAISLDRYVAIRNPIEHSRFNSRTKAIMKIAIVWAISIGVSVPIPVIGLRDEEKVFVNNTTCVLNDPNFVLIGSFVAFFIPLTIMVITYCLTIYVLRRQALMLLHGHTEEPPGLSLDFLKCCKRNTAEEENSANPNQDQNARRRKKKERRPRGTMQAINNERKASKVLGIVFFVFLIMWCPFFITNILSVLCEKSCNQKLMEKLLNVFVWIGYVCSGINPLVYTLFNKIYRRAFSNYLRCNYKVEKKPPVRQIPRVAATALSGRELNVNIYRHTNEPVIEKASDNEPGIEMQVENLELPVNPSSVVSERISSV
smiles,measurement,setting,value
"COc1ccc2[nH]cc(CCN(C)C)c2c1 [5-MeO-DMT, 5-methoxy-N,N-dimethyltryptamine]",EC50,"[1]; agonist, 37 °C, 60 min","(E) Psilocin, (F) DMT, (G) 5-MeO-DMT"
"COc1cc([N+](=O)[O-])c(OC)cc1CCNCc1ccccc1I [compound 10, 25N-NBI]",pKi,[2],selectivity for 5-HT2AR over 5-HT2BR and 5-HT2CR in competitive binding studies
"COc1cc(OC)c(OC)cc1CCNCc1cccc(I)c1 [compound 34, 25O-NB-3-I]",EMAX,[3]; partial agonist,51.7 % of 5-HT
COc1cc(OC)c(OC)cc1CCNCc1ccccc1OC [compound 32],EMAX,[3]; agonist,99.9 % of 5-HT
CN(C)CCc1c[nH]c2cccc(O)c12 [Psilocin],EC50,"[1]; agonist, 37 °C, 60 min","(E) Psilocin, (F) DMT, (G) 5-MeO-DMT"
CN(C)CCc1c[nH]c2ccccc12 [DMT],EC50,[1],"(E) Psilocin, (F) DMT, (G) 5-MeO-DMT"
"COc1cc(CCNCc2cccc3ccccc23)c(OC)cc1C [compound 26, 25D-N1-Nap]",EMAX,[3]; partial agonist,34.3 % of 5-HT
"COc1cc([N+](=O)[O-])c(OC)cc1CCNCc1ccccc1 [compound 2, 25N-NB]",EC50,[4],8.3 nM
same,EMAX,[5],32 % of 5-HT
